Results taken from ChEMBL document CHEMBL2094269, “WEHI/Eskitis Trypanosoma b. brucei screening data”.
“And” between values parts separate entries of the source, which are not always exact repeats. Equal entries are not always repeated.

What was measured:
[1] = test system: Trypanosoma brucei brucei; test: microbe, parasite or virus in culture; assay type: functional, organism-based, STIB 795
Description: DNDI: Inhibition of Human African Trypanosomiasis (HAT), STIB 795, in vitro

[2] = DNDI: Cytotoxicity against human MRC-5 lung fibroblast cells.; conditions: IC50

Compound | IC50 ([1]; Trypanosoma brucei, STIB 795) [µM] | IC50 [2] [µM] | IC50 [1]
COc1ccccc1C(CCNC(C)c1ccccc1)C1CCOC(C)(C)C1 (centres undefined) | 4.74 | > 41.7 | –
CCn1c(SCC(=O)N/N=C(\C)c2ccc(O)c(OC)c2)nc2ccccc21 | 5.06 | > 41.7 | –
CCC(=O)N(CC(CC(C)C)N1CCN(C)CC1)c1ccc(C2CCCC2)cc1 (centres undefined) | 4.79 | > 41.7 | –
CCCCNCc1cc(Br)c(OCc2ccc(F)cc2)c(OC)c1 | 4 | > 41.7 | –
CC(C)(C)C1CCc2nc(N)nc(N)c2C1 (centres undefined) | ≤ 3.36 | > 4.17 | –
Oc1c(/N=N/c2ccccn2)ccc2ccccc12 | 0.718 | > 20.8 | –
CS(=O)(=O)c1cccc(C(=O)Nc2nc(-c3ccccn3)cs2)c1 | 0.498 | > 10.4 | –
C[N+](CC#CC1CC1)(C1CCCCC1)C1CCCCC1 | 8.85 | > 41.7 | –
CN1CCN(c2nc(Nc3ccc(F)cc3)nc(Nc3ccc(F)cc3)n2)CC1 | 5.11 | > 41.7 | –
CCCCN1/C(=C/c2cc[n+](CC)c3ccccc23)C=Cc2cc(C)ccc21 | 0.831 | > 10.4 | –
[O-][n+]1onc2cc(Cl)c3nonc3c21 | 5.23 | > 4.17 | –
CC(C)Nc1ccc(Nc2ccnc3cc4ccccc4cc23)cc1 | 2.58 | > 41.7 | –
Cc1ccc2[nH]c(/C(C#N)=C/c3ccc(O)c(O)c3)nc2c1 | 1.51 | > 20.8 | –
COCc1cc(CN2CCN(c3ccccc3OC)CC2)c(O)c2ncccc12 | 2.31 | 1.58 | –
CC1(C)N=C(N)N=C(N)N1OCc1ccc(F)c(-c2ccc(F)cc2)c1 | ≤ 1.45 | > 2.08 | –
COc1ccc(C/C(N)=N/OC(=O)c2cccs2)cc1OC | 4.78 | > 41.7 | –
Cc1cc(C)c2c(c1)CC(C)(C)C(=O)C2=O | 3.3 | > 41.7 | –
O=C(COc1ccc(Cl)cc1Cl)NO | 0.921 | > 20.8 | –
CC1CC(C)(C)Nc2ccc(OCc3cccc4ccccc34)cc21 (centres undefined) | 0.832 | > 20.8 | –
Cc1cccc(C)c1C(O)(CC(O)CNC(C)C)c1c(C)cccc1C (centres undefined) | 4.92 | > 41.7 | –
Oc1c(Br)cc(CN2CCOCC2)c2cccnc12 | 1.1 | > 20.8 | –
CCOC(=O)c1ccc(NC(=O)C2CCCN(C(=O)c3ccccc3F)C2)cc1 (centres undefined) | 56.3 | > 20.8 | –
CN1CCC(=NNC(=O)c2cc(-c3ccc(Cl)cc3)nc3ccccc23)CC1 | 5.52 | > 41.7 | –
Cc1n[nH]c(C)c1/N=N/N1CCOCC1 | 0.7 | 3.61 | –

Compound | IC50 ([1]; Trypanosoma brucei, STIB 795) [µM] | IC50 [2] [µM] | IC50 [1]
CCn1c(Cc2nc3ccccc3n2CC)nc2ccccc21 | 3.87 | > 41.7 | –
CC1(C)CC2CC(C)(CN2C(=O)COCc2cc(-c3cccs3)on2)C1 (centres undefined) | 5.44 | > 41.7 | –
Cc1cc(Cl)n(C)c2nc3ccccc3c1-2 | 0.631 | > 10.4 | –
Nc1ccsc1/C=C/c1cccs1 | 5.05 | > 41.7 | –
O=C(CNc1ccc(Cl)cc1)N/N=C/c1cccnc1 | 1.75 | > 4.17 | –
CC(C)NC[C@]1(C)CCC[C@]2(C)c3ccc(C(C)C)cc3CC[C@@H]12 | 0.47 | > 41.7 | –
N#CC1=C(N)Oc2[nH]nc(C(F)(F)F)c2C1c1cccs1 (centres undefined) | 5.51 | > 41.7 | 5.41 µM
O/N=C1\C=Cc2[nH]c(-c3ccccc3)cc2\C1=N/O | 0.254 | 0.721 | –
COc1cccc(NC(=O)CSc2cccc3cccnc23)c1 | 5.79 | > 41.7 | –
CCN1/C(=C/C(=C/c2sc3ccccc3[n+]2CC)OC)Sc2ccccc21 | 0.524 | 2.25 | –
C=CCc1cccc(/C=N/NC(=O)c2cc(-c3ccc4ccccc4c3)n[nH]2)c1O | 3 | > 41.7 | –
O=C(CC1(O)C(=O)Nc2ccc(Br)cc21)c1ccccc1F (centres undefined) | 4.54 | > 41.7 | –
Cc1cc(NCCN2CCCCC2)c2ccc3ccccc3c2n1 | 2.43 | > 20.8 | –
NS(=O)(=O)c1ccc(/N=N/c2ccc(O)c3ncccc23)cc1 | 4.78 | > 20.8 | –
Cc1c(-c2cccc3c2OC(C)(C)C3)ccc2nc(N)nc(N)c12 | ≤ 1.95 | > 4.17 | –
O=C(Nc1cccc(Cl)c1)O/N=C1\CC2CCC1C2 (centres undefined) | 0.857 | > 20.8 | –
O=C(NCCc1nc(-c2ccccc2)cs1)C1(c2ccccc2)CC1 | 5.81 | > 41.7 | 4.88 µM
CN1/C(=C/c2cccc[n+]2C)Sc2ccccc21 | 0.477 | > 20.8 | –
Cc1[nH]c2ccccc2c1/C=C1\SC(=N)N(c2nccs2)C1=O | 2.15 | > 20.8 | –
CCN1CCCC(Nc2ccnc3cc4ccccc4cc23)C1 (centres undefined) | 0.275 | 4.95 | –
Cc1nnc(-c2ccccc2)c(=O)n1/N=C/c1c(O)ccc2ccccc12 | 6.25 | > 4.17 | 6.05 µM
Cc1cccc(NCc2ccc(O)c3ncccc23)n1 | 4.89 | > 20.8 | –
COc1ccc(/C(N)=N/OC(=O)C23CC4CC(CC(C4)C2)C3)cc1OC | 0.774 | > 41.7 | –
O=C(CN1CCN(c2ccc(Cl)cc2)CC1)c1ccc(O)c(O)c1 | 3.04 | > 41.7 | –

Compound | IC50 ([1]; Trypanosoma brucei, STIB 795) [µM] | IC50 [2] [µM] | IC50 [1]
CN(C)c1ccc(/C=C/c2cc(-c3ccccc3)n(-c3ccccc3)[n+]2C)cc1 | 0.68 | > 20.8 | –
Cn1c(-c2cccnc2)nn(C2CC(=O)C3OCC2O3)c1=S (centres undefined) | 2.32 | > 20.8 | –
C=CCc1ccc(OCCCCCN2CCNCC2)c(OC)c1 | 3.19 | > 41.7 | –
CCn1c(=N)n(CCCOc2ccc(F)cc2)c2ccccc21 | 5.46 | > 20.8 | –
Cc1ccc(-c2cn3c([n+]2-c2ccc(C)cc2)CCCCC3)cc1 | 6.4 | > 20.8 | –
COc1ccc2c(c1)S/C(=C/C(=O)c1ccncc1)N2C | 5.01 | > 41.7 | –
COc1cc(OC)nc(-n2ncc(Cl)c(Cl)c2=O)n1 | 5.32 | 4.53 | –
Oc1c(C(Nc2nccs2)c2ccc(F)cc2)ccc2cccnc12 (centres undefined) | – | > 20.8 | 2.37 µM and > 10.4 µM
O=C1/C(=C\c2cccnc2)CCc2ccccc21 | 5.02 | > 20.8 | –
O=C(Nc1c2ccccc2nc2ccccc12)c1ccccc1F | 5.31 | > 4.17 | –
C1=C(N2CCNCC2)c2ccccc2Sc2ccccc21 | 3.16 | > 20.8 | –
S=c1c(Cl)c(Cl)cnn1-c1ccccc1 | 6.17 | > 20.8 | –
NCCCCNCCOC(c1ccc(F)cc1)c1ccc(F)cc1 | 2.6 | > 20.8 | –
CNCCCC1Sc2ccccc2C(C)c2ccccc21 (centres undefined) | 4.88 | > 20.8 | –
c1ccc2c(c1)CC1CNCc3cccc(c31)S2 (centres undefined) | 5.59 | > 41.7 | –
NC1=C(Cl)C(=O)c2ccccc2C1=O | 2.44 | > 41.7 | –
NCCc1c[nH]c2ccc(C3CCCCC3)cc12 | 1.28 | > 20.8 | –
Cc1cc(/C=N/n2cnnc2)c(C)n1-c1cccc(C(F)(F)F)c1 | < 0.04 | > 41.7 | –
CC(C)(C)C(=O)N1N=C(c2ccc(NS(C)(=O)=O)cc2)CC1c1ccco1 (centres undefined) | 5.6 | > 20.8 | –
CC(C)c1ccc(-c2csc(NC(=O)C3C4CCC(O4)C3C(=O)O)n2)cc1 (centres undefined) | 1.56 | > 41.7 | 0.879 µM
C(=C\c1ccc(OC2CN3CCC2CC3)cc1)/c1ccccc1 (centres undefined) | 5.31 | > 41.7 | –
CCn1nc(/C=C/c2ccccc2)[n+]([O-])c2c(=O)n(C)c(=O)nc1-2 | 3.67 | > 20.8 | –
Cc1nnc(-c2cc(S(=O)(=O)NCc3ccc4c(c3)OCO4)c[nH]2)o1 | 5.42 | > 41.7 | –
C=CCn1c(-c2ccccc2Cl)nn(C2CCC3OCC2O3)c1=S (centres undefined) | 3.79 | > 20.8 | –

Compound | IC50 ([1]; Trypanosoma brucei, STIB 795) [µM] | IC50 [2] [µM] | IC50 [1]
Cc1ccc(NCC(=O)N/N=C/c2c(C)cc(O)cc2O)cc1 | 5.37 | > 20.8 | –
CC(C)c1ccc(OCc2ccc(C(=O)NCCN(C)C)cc2)cc1 | 5.86 | > 20.8 | –
COc1cc2nc(NC3CCCc4ccccc43)nc(N)c2cc1OC (centres undefined) | 4.75 | > 4.17 | –
Oc1c(C(c2ccccc2Cl)N2CCOCC2)ccc2cccnc12 (centres undefined) | 5.59 | > 20.8 | –
CN(C)CCCOC1=Cc2ccccc2Cc2ccccc21 | 6.6 | > 41.7 | –
O=C(N/N=C/c1ccc(-c2ccccc2Cl)o1)c1ccccc1 | < 0.004 | > 41.7 | –
Clc1ccc(C(OCC2CCCCN2)c2ccc(Cl)cc2)cc1 (centres undefined) | 2.78 | > 4.17 | –
COc1ccc(C(=O)O/N=C(\N)Cc2cccs2)cc1OC | 1.61 | > 20.8 | –
CCN(CC)c1ccc(/C=N/n2cnnc2)c(O)c1 | 1.92 | > 41.7 | –
CN(/C=C/C=C/C=C/C1=[N+](C)c2ccccc2C1(C)C)c1ccccc1 | 1.97 | > 20.8 | –
Oc1c(/N=N/c2ccc3cccc(O)c3n2)ccc2ccccc12 | 3.87 | > 20.8 | –
COc1ccc(CC(C)N)c(Sc2ccccc2)c1 (centres undefined) | 5.42 | > 41.7 | –
COc1ccc(NCC2COc3ccccc3C2=O)cc1 (centres undefined) | 4.91 | > 41.7 | –
CCOC(=O)c1nc[nH]c1/N=N/c1ccc(O)c2ccccc12 | 0.927 | 3.83 | –
COc1ccc(O)c(/C=N/Nc2ccccn2)c1 | 4.69 | > 20.8 | –
COCc1cc(O)nc(Nc2nc3ccc(C)cc3o2)n1 | 5.16 | > 20.8 | –
CC(C)CC(=O)NC(=C(Cl)Cl)S(=O)(=O)c1ccccc1 | 5.33 | > 4.17 | –
COC(=O)c1cn(NC(=O)c2ccccn2)c(=O)c2ccccc12 | 0.63 | > 10.4 | –
CC(C)Cc1nc(NCCC2CCCN2C)c2cnn(-c3ccccc3)c2n1 (centres undefined) | 2.66 | > 20.8 | –
N=C(NOC(=O)C12CC3CC(CC(C3)C1)C2)c1ccccc1 | 0.322 | > 20.8 | –
CC(C)(C)OC(=O)N1CCC[C@H]1c1nnc(SCc2cccc(Cl)c2)o1 | 0.538 | 2.87 | –
N#Cc1ccccc1N=NNc1ccccc1C#N | 5.08 | > 41.7 | –
COCCN1CSC(=S)N(Cc2ccco2)C1 | 4.84 | > 4.17 | –
